# According to patent publication US20160375103A1, “DIURETIC AND NATRIURETIC POLYPEPTIDES” (Mayo Foundation for Medical Education and Research, priority 2006, published 2016):
# Key:
# normal dogs = test: intravenous infusion of ASBNP.1 in normal dogs; format: in vivo, dog
# Experimental: A truncated form of ASBNP that terminates prior to the cysteine and contains a 13 amino acid C-terminus tail was designed and synthesized. This polypeptide is referred to as an ASBNP.1 polypeptide (FIG. 1). The biological effects of intravenous ABNP.1 infusion were tested in normal dogs. Briefly, six normal dogs were infused with 2, 10, and 100 pmol of an ASBNP.1 polypeptide preparation, i.e., each dog received consecutive infusions of 2, 10, and 100 pmol of an ASBNP.1 polypeptide preparation. Urine flow, urinary sodium excretion, distal fractional tubular sodium reabsorption, proximal tubular fractional sodium reabsorption, mean arterial blood pressure, plasma cGMP levels, glomerular filtration rate, renal blood flow, and plasma renin levels were measured as described elsewhere (Chen et al., Am. J. Physiol. Regul. Integr. Comp. Physiol., 288: R1093-R1097 (2005) and Haber et al., J. Clin. Endocrinol. Metab., 29:1349-1355 (2005)). […] Systemic administration of the ASBNP.1 polypeptide had no effect on glomerular filtration rate, renal blood flow, or mean arterial blood pressure (FIGS. 8-10).
# [1] = system: paced dog model of congestive heart failure (CHF); test: intravenous infusion in paced dog model of congestive heart failure (CHF), consecutive doses; format: in vivo; settings: paced CHF dogs
# Experimental: The biological effects of intravenous ABNP.1 infusion were tested in a paced dog model of congestive heart failure (CHF). Briefly, 10 dogs underwent surgical implantation of a programmable cardiac pacemaker (Medtronic, Minneapolis, Minn.). After postoperative recovery, the animals received 11 days of rapid ventricular pacing (240 beats/minute), which can induce overt congestive heart failure CHF as described elsewhere (Chen et al., Circulation, 100:2443-2448 (1999)). The dogs were intravenously infused with 2, 10, and 100 pmol of an ASBNP.1 polypeptide preparation, i.e., each dog received consecutive infusions of 2, 10, and 100 pmol of an ASBNP.1 polypeptide preparation.
# Acute hemodynamic studies were performed at the time of infusion, and comparisons were made between groups and among dogs at baseline and during each infusion. Urine flow, urinary sodium excretion, distal fractional tubular sodium reabsorption, proximal tubular fractional sodium reabsorption, plasma cGMP levels, rennin levels, glomerular filtration rate, renal blood flow, mean arterial blood pressure, urinary cGMP excretion, urinary ANP excretion, urinary BNP excretion, plasma BNP levels, plasma ANP levels, pulmonary capillary wedge pressure, cardiac output, systemic vascular resistance, angiotensin II levels, and aldosterone levels were measured as described elsewhere (Chen et al., Am. J. Physiol. Regul. Integr. Comp. Physiol., 288: R1093-R1097 (2005) and Haber et al., J. Clin. Endocrinol. Metab., 29:1349-1355 (2005)). […] There was no effect on distal tubular fractional sodium reabsorption, proximal tubular fractional sodium reabsorption renal blood flow, plasma cGMP, mean arterial blood pressure, plasma BNP, plasma ANP, pulmonary capillary wedge pressure, or angiotensin II levels (FIGS. 17, 18, 19, 22, 23, 28, 29, and 32).
# paced dogs = test: 90 minute infusion of ASBNP.1 (100 pmol/kg/minute) in paced dogs; format: in vivo, dog; settings: 100 pmol/kg/minute for 90 minutes
# Experimental: FIG. 34 is a graph plotting urinary sodium excretion (microEq/min) in paced dogs at the indicated times after beginning administration of ASBNP.1 polypeptide (100 pmol/kg/minute) for 90 minutes. BL=baseline; 30 min=30 minutes of ASBNP.1 polypeptide administration; 60 min=60 minutes of ASBNP.1 polypeptide administration; 90 min=90 minutes of ASBNP.1 polypeptide administration; Washout=after washout period at stop of infusion; Rec 1=30 minutes after stopping infusion; and Rec 2=60 minutes after stopping infusion.
# In another experiment, an ASBNP.1 polypeptide preparation was administered to dogs (100 pmol/kg/minute for 90 minutes). Urinary sodium excretion, urine flow, mean arterial blood pressure, renal blood flow, pulmonary capillary wedge pressure, and cardiac output were measured after 30, 60, and 90 minutes of administering the ASBNP.1 polypeptide. Administration of ASBNP.1 polypeptide was followed by a washout period of 30 minutes. The washout was performed by administering normal saline. Urinary sodium excretion, urine flow, mean arterial blood pressure, renal blood flow, pulmonary capillary wedge pressure, and cardiac output were measured again after the washout period, and after each of two recovery periods at 60 minutes (Rec 1) and 90 minutes (Rec 2) after administration of the ASBNP.1 polypeptide.
# HUVECs = test: cGMP levels in HUVECs; format: cell-based, human
# From the text: FIG. 11 is a bar graph plotting cGMP levels in HUVECS treated with BNP, ASBNP, or ASBNP.1 at the indicated concentrations. OX represents oxidized, and non-OX represents non-oxidized.
# (§1) In some embodiments, a polypeptide provide herein can lack the ability to stimulate production of cGMP in human umbilical vascular endothelial cells (HUVEC). Intracellular cGMP production can be assayed using, for example, the BIOTRACK cGMP enzyme immunoassay kit (Amersham Pharmacia Biotech). In other embodiments, a polypeptide provide herein can lack vasoactivity. Vasoactivity can be assessed by determining responsitivity of a blood vessel (e.g., a carotid artery in an organ chamber) to the polypeptide.
# (§2) The following experiments were performed to compare the activities of BNP, ASBNP, and ASBNP.1 polypeptides. Briefly, synthesized forms of BNP, ASBNP, and ASBNP.1 were administered to HUVECs and HASMCs, and cGMP levels were determined.
# HASMCs = test: cGMP levels in HASMCs; format: cell-based
# Experimental: FIG. 12 is a bar graph plotting cGMP levels in HASMCS treated with BNP, ASBNP, or ASBNP.1 at the indicated concentrations. OX represents oxidized, and non-OX represents non-oxidized.
# as §2
# [2] = system: rabbit artery that was pre-constricted; test: vasoactivity in pre-constricted rabbit artery (vascular rings); settings: compared with BNP
# From the text: FIG. 13 is a line graph plotting vasoactivity measurements obtained from rabbit vascular rings treated with either BNP, ASBNP, or ASBNP.1 at the indicated concentrations.
# as §1, §2
# [3] = normal dogs, 2, 10, 100 pmol i.v.
# [4] = normal dogs, consecutive i.v. infusions of 2, 10, 100 pmol
# [5] = consecutive i.v. infusions of 2, 10, 100 pmol
substance,measurement,setting,value
"ASBNP.1: truncated form of ASBNP that terminates prior to the cysteine, 13 amino acid C-terminus tail; 42 amino acid residues (SEQ ID NO:1) (SPKMVQGSGCFGRKMDRISSSSGLGCKGKHPLPPRPPSPIPV)",distal and proximal tubular fractional sodium reabsorption,normal dogs; [3],targeted distal tubules
same,glomerular filtration rate,normal dogs; [3],no effect
same,mean arterial blood pressure,normal dogs; [3],no effect
same,renal blood flow,normal dogs; [3],no effect
same,urinary sodium excretion (natriuretic effect),normal dogs; [4],diuretic and natriuretic effects
same,urine flow (diuretic effect),normal dogs; [4],diuretic and natriuretic effects
same,plasma cGMP,"normal dogs; normal dogs, super high is 100 pmol",elevated at the super high dose
same,plasma renin,"normal dogs; normal dogs, two higher doses 10 and 100 pmol",trend towards a decreased renin at the two higher doses
same,aldosterone,[1],increased from the administration of the low level of polypeptide and continued to increase throughout the remainder of the experiment
same,angiotensin II levels,[1],no effect
same,cardiac output,[1],decreased from the administration of the high level of polypeptide and remained decrease throughout the remainder of the experiment
same,distal tubular fractional sodium reabsorption,[1],no effect
same,mean arterial blood pressure,[1],no effect
same,plasma ANP,[1],no effect
same,plasma BNP,[1],no effect
same,plasma cGMP,[1],no effect
same,proximal tubular fractional sodium reabsorption,[1],no effect
same,pulmonary capillary wedge pressure,[1],no effect
same,renal blood flow,[1],no effect
same,renin,[1],increased throughout the washout period
same,systemic vascular resistance,[1],"increased during the high, super high, washout, and recovery 1 phases"
same,urinary sodium excretion (natriuretic effect),[1]; [5],diuretic but not natriuretic effects
same,urine flow (diuretic effect),[1]; [5],diuretic but not natriuretic effects
same,glomerular filtration rate,[1]; high is 10 pmol,increased glomerular filtration rate at the high level
same,urinary cGMP excretion,"[1]; high is 10 pmol, super high is 100 pmol",increased urinary cGMP excretion at the high and super high levels
same,urinary ANP excretion,[1]; high level (10 pmol),increased urinary ANP excretion
same,urinary BNP excretion,[1]; super high level (100 pmol),increased urinary BNP excretion
same,PAP (pulmonary arterial pressure),paced dogs,without a change
same,RAP (right arterial pressure),paced dogs,without a change
same,cardiac output,paced dogs,No significant effect
same,mean arterial blood pressure,paced dogs,No significant effect
same,renal blood flow,paced dogs,No significant effect
same,urinary sodium excretion,paced dogs,increase
same,urine flow,paced dogs,increase
same,pulmonary capillary wedge pressure,paced dogs; 60 minutes after administration,decrease
same,cGMP levels in HUVECs,HUVECs,no effect
same,cGMP levels in HASMCs,HASMCs,no effect
same,vasoactivity on pre-constricted rabbit artery,[2],no effect
"ASBNP: variant form of BNP generated by alternative splicing, 60 amino acid residues in length (SEQ ID NO:4) (SPKMVQGSGCFGRKMDRISSSSGLGCKGKHPLPPRPPSPIPVCDTVRVTLGFVVSGNHTL) [reference compound]",cGMP levels in HUVECs,HUVECs,minimal effects
same,cGMP levels in HASMCs,HASMCs,minimal effects
same,vasoactivity on pre-constricted rabbit artery,[2],no effect
